The numbers were not newly measured in publication PMC8554823 (ACS Central Science, 2021), which cites them from elsewhere.

This series addresses human granzyme B (Homo sapiens, UniProt P10144). As to conditions: previously reported value for IEPD alone.

Sequence of human granzyme B (P10144 21-247): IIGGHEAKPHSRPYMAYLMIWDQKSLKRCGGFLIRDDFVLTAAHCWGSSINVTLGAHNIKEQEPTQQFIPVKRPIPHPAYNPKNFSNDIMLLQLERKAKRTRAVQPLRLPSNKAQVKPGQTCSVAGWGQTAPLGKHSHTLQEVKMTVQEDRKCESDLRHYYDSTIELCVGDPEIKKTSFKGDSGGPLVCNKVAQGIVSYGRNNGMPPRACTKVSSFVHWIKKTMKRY

For IEPD, the “catalytic efficiency (kcat/Km)” value is around 3300 M^–1 s^–1.
